From patent US20250000855A1, “USE OF APOMORPHINE AS THERAPEUTIC AGENT FOR NECROPTOSIS-RELATED DISEASES” (INDUSTRY-ACADEMIC COOPERATION FOUNDATION, YONSEI UNIVERSITY, priority 2021, published 2025)

Key:
MLKL phosphorylation = test: Western blotting for MLKL phosphorylation in TBZ+APO-treated cells; type: cell-based, human; conditions: TBZ+APO-treated THP-1 cells, FIG. 1B
Procedure: (§1) Cells were pretreated with Z-VAD (invivoGen, tlrl-vad) and a compound for 1 hour, and necroptosis was induced with TNF-α (ATGen, TNF0501) and BV6 (Biovision, B1332-5) for the indicated time. The prepared cells were appropriately treated according to analysis (Z-VAD: carbobenzoxy-valyl-alanyl-aspartyl, TNF-α: tumor necrosis factor-α, BV6: 4,4′-(1,6-hexanediyl)bis[N-methyl-L-alanyl-(2S)-2-cyclohexylglycyl-L-prolyl-β-phenyl-L-phenylalaninamide)
Cells were treated with a drug candidate and then collected using centrifugation at 4° C. and 1,500×g for 5 minutes. A supernatant was centrifuged again at 4° C. and 1,500×g for 5 minutes to remove remaining debris, concentrated at 4° C. and 14,000×g for 30 minutes using Amicon ultra-0.5 centrifugal filter unit 10K (Millipore, UFC501096), and stored. The collected cells were lysed using 1× radioimmunoprecipitation assay (RIPA) buffer (GenDEPOT, R4100-010) containing a 1× protease inhibitor (GenDEPOT, P3100-001) and a phosphatase inhibitor (Thermo Fisher Scientific, 1862495). Subsequently, the cell lysate was centrifuged at 4° C. and 20,000×g for 30 minutes to remove debris. The extracted protein concentration was measured using a bicinchoninic acid (BCA) protein assay kit (Thermo Fisher Scientific, 23225). […]

[1] = target: T1, MLKL N-term domain (amino acids 1-154) (Homo sapiens, UniProt Q8NB16); test: Surface plasmon resonance (SPR) analysis, binding to MLKL N-term domain; conditions: MLKL N-term domain immobilized on CM5 chip, Biacore T200, 25° C., 10 mM HEPES pH 7.4
T1 construct: MLKL N-term (amino acids 1-154) protein that had been purified in a laboratory; made in house
T1 sequence (Q8NB16 1-154): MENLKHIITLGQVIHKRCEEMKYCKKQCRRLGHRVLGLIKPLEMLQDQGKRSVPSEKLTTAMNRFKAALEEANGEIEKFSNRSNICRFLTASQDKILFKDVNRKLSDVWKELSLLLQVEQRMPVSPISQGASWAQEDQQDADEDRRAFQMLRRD
Procedure: The interaction between MLKL and apomorphine (=APO) was detected through surface plasmon resonance (SPR) analysis using Biacore T200 (GE Healthcare). For pH scouting, a buffer consisting of 10 mM sodium acetate (pH 4.0 to 6.0) was used. MLKL protein (Abcam, ab241453), and MLKL N-term (amino acids 1-154) protein that had been purified in a laboratory were immobilized on the surface of a sensor chip CM5 (GE Healthcare) under scouted buffer conditions. To deduce an Rligand value, a coupling process was performed based on the molecular weights of MLKL, MLKL N-term domain (MW ligand), and APO (MW analyte). Oxidized (24 hr, RT incubation) and reduced (+DTT(DL-dithiothreitol)) forms of APO were injected into a running buffer (flow rate: 10 μl/min) consisting of 10 mM HEPES (pH 7.4) at 25° C. A sensorgram was recorded and analyzed in real time using control software provided by the Biacore T200 system itself. Six or more concentrations of APO were used in combination, and each KD value was derived. All run data was calculated using BIAevaluation Software (GE Healthcare).
SPR analysis was used to analyze the interaction pattern between APO and the MLKL protein (Experimental Method 1-10). […] Here, the analysis was performed by binding MLKL and the MLKL N-term domain protein immobilized on a CM5 chip with APO having six concentrations.

MLKL oligomerization = MLKL oligomerization (tetramer and octamer bands) by non-reducing or reducing SDS-PAGE; type: cell-based, human; conditions: cytoplasmic and membrane fractions, necroptosis induced with TBZ, FIG. 2 / FIG. 6A
Procedure: as §1
Cells were treated with a drug candidate and then collected using centrifugation at 4° C. and 1,500×g for 5 minutes. A supernatant was centrifuged again at 4° C. and 1,500×g for 5 minutes to remove remaining debris, concentrated at 4° C. and 14,000×g for 30 minutes using Amicon ultra-0.5 centrifugal filter unit 10K (Millipore, UFC501096), and stored. […] The extracted protein concentration was measured using a bicinchoninic acid (BCA) protein assay kit (Thermo Fisher Scientific, 23225). […]
To test whether the tetramer and octamer formation of p-MLKL for pore formation in the cell membrane is inhibited by apomorphine (APO), cells that had been treated with each molecule for the indicated time were separated into cytoplasmic and membrane fractions and analyzed through non-reducing or reducing sodium dodecyl sulfate-polyacrylamide gel electrophoresis (SDS-PAGE), and then investigated with specific antibodies (Experimental Method 1-6). […]

Kd [1]: 62.5 nM
Compound: CN1CCc2cccc3c2[C@H]1Cc1ccc(O)c(O)c1-3 [APO, apomorphine]
MLKL phosphorylation (MLKL phosphorylation): did not inhibit
intensities of the tetramer and octamer bands of MLKL (MLKL oligomerization): decreased
